Reference: patent US10118935B2, “Melampomagnolide B dimers” (priority 2014, dated 2018)

Columns and labels:
MDA-MB-231/ATCC [1] = assay: NCI 60 cell line five dose, Breast Cancer
NCI-H322M = assay: NCI 60 cell line five dose, Non-Small Cell Lung Cancer
NCI-H522 = assay: as above
MDA-MB-231/ATCC [2] = system: MDA-MB-231/ATCC
MDA-MB-468 [3] = system: MDA-MB-468
TK-10 [4] = assay: NCI 60 cell line five dose, Renal Cancer
SW-620 [5] = system: SW-620
DU-145 [6] = system: DU-145
SN12C [7] = system: SN12C
NCI-H23 = assay: NCI 60 cell line five dose, Non-Small Cell Lung Cancer
MDA-MB-468 [8] = assay: NCI 60 cell line five dose, Breast Cancer
DU-145 [9] = assay: NCI 60 cell line five dose, Prostate Cancer
TK-10 [10] = system: TK-10
SW-620 [11] = assay: NCI 60 cell line five dose, Colon Cancer
SN12C [12] = assay: NCI 60 cell line five dose, Renal Cancer
SF-268 [13] = assay: NCI 60 cell line five dose, CNS Cancer
SF-268 [14] = system: SF-268
HL-60(TB) = conditions: for CC50: read-out: LC50
NCI/ADR-RES = assay: NCI 60 cell line five dose, Ovarian Cancer; conditions: NCI/ADR-RES

Compound: C=C1C(=O)O[C@H]2[C@H]1CC/C(COC(=O)CCC(=O)NCCCCCCCCNC(=O)CCC(=O)OC/C1=C/CC[C@@]3(C)O[C@H]3[C@H]3OC(=O)C(=C)[C@@H]3CC1)=C\CC[C@@]1(C)O[C@@H]21 [JVM 2-87, bis(((1aR,7aS,10aS,10bS,E)-1a-Methyl-8-methylene-9-oxo-1a,2,3,6,7,7a,8,9,10a,1b-decahydrooxireno[2′,3′:9,10]cyclodeca[1,2-b]furan-5-yl)methyl)4,4′-(octane-1,8-diylbis(azanediyl))bis(4-oxobutanoate)]
- GI50 (MDA-MB-231/ATCC [1]): 1.97 µM
- TGI (MDA-MB-231/ATCC [1]): 4.41 µM
- GI50 (NCI-H322M): 16.3 µM
- TGI (NCI-H322M): 31.4 µM
- GI50 (NCI-H522): 0.48 µM
- TGI (NCI-H522): 1.80 µM
- CC50 (CAKI-1): 80.3 µM
- CC50 (MDA-MB-231/ATCC [2]): 9.88 µM
- CC50 (MDA-MB-468 [3]): 21.3 µM
- GI50 (TK-10 [4]): 20.8 µM
- TGI (TK-10 [4]): 3.94 µM
- CC50 (RPMI-8226): > 100 µM
- CC50 (NCI-H226): 15.7 µM
- CC50 (K-562): > 100 µM
- CC50 (SW-620 [5]): 7.2 µM
- CC50 (A498): 49.6 µM
- CC50 (SF-539): 20.9 µM
- CC50 (DU-145 [6]): 6.81 µM
- CC50 (SN12C [7]): 53.8 µM
- GI50 (NCI-H23): 2.99 µM
- TGI (NCI-H23): 8.25 µM
- CC50 (SR): > 100 µM
- CC50 (HT29): 5.92 µM
- CC50 (MOLT-4): > 100 µM
- CC50 (ACHN): 34.7 µM
- CC50 (U251): 43 µM
- GI50 (MDA-MB-468 [8]): 1.33 µM
- TGI (MDA-MB-468 [8]): 3.84 µM
- GI50 (DU-145 [9]): 1.92 µM
- TGI (DU-145 [9]): 3.61 µM
- CC50 (OVCAR-8): > 100 µM
- CC50 (TK-10 [10]): 7.46 µM
- GI50 (SW-620 [11]): 1.22 µM
- TGI (SW-620 [11]): 2.97 µM
- CC50 (SK-MEL-2): 9.38 µM
- GI50 (SN12C [12]): 3.74 µM
- TGI (SN12C [12]): 14.8 µM
- CC50 (BT-549): 5.12 µM
- GI50 (SF-268 [13]): 3.34 µM
- TGI (SF-268 [13]): 11.6 µM
- CC50 (HCC-2998): 63.6 µM
- CC50 (HCT-116): 5.41 µM
- CC50 (OVCAR-4): 9.38 µM
- CC50 (SF-268 [14]): 42.4 µM
- CC50 (SK-OV-3): 47.9 µM
- GI50 (HL-60(TB)): 0.63 µM
- TGI (HL-60(TB)): 3.12 µM
- CC50 (HL-60(TB)): > 100 µM
- CC50 (SK-MEL-28): 6.32 µM
- GI50 (NCI/ADR-RES): 33.5 µM
- TGI (NCI/ADR-RES): >100 µM
- CC50 (RXF 393): 7.27 µM
- CC50 (786-0): 6.67 µM

Compound: C=C1C(=O)O[C@H]2[C@H]1CC/C(COC(=O)CCC(=O)NCCCCCCCCCNC(=O)CCC(=O)OC/C1=C/CC[C@@]3(C)O[C@H]3[C@H]3OC(=O)C(=C)[C@@H]3CC1)=C\CC[C@@]1(C)O[C@@H]21 [JVM 2-92, bis(((1aR,7aS,10aS,10bS,E)-1a-Methyl-8-methylene-9-oxo-1a,2,3,6,7,7a,8,9,10a,10b-decahydrooxireno[2′,3′:9,10]cyclodeca[1,2-b]furan-5-yl)methyl)4,4′-(nonane-1,9-diylbis(azanediyl))bis (4-oxobutanoate)]
- GI50 (MDA-MB-231/ATCC [1]): 1.58 µM
- TGI (MDA-MB-231/ATCC [1]): 4.05 µM
- GI50 (NCI-H322M): 16.3 µM
- TGI (NCI-H322M): 31.6 µM
- GI50 (NCI-H522): 0.42 µM
- TGI (NCI-H522): 1.64 µM
- CC50 (CAKI-1): 49.9 µM
- CC50 (MDA-MB-231/ATCC [2]): 13.3 µM
- CC50 (MDA-MB-468 [3]): 7.04 µM
- GI50 (TK-10 [4]): 1.78 µM
- TGI (TK-10 [4]): 3.28 µM
- CC50 (RPMI-8226): > 100 µM
- CC50 (NCI-H226): 8.6 µM
- CC50 (K-562): > 100 µM
- CC50 (SW-620 [5]): 6.14 µM
- CC50 (A498): 31.3 µM
- CC50 (SF-539): 9.95 µM
- CC50 (DU-145 [6]): 5.78 µM
- CC50 (SN12C [7]): 49.7 µM
- GI50 (NCI-H23): 2.23 µM
- TGI (NCI-H23): 5.13 µM
- CC50 (SR): > 100 µM
- CC50 (HT29): 5.69 µM
- CC50 (MOLT-4): > 100 µM
- CC50 (ACHN): 17.2 µM
- CC50 (U251): 44.7 µM
- GI50 (MDA-MB-468 [8]): 0.98 µM
- TGI (MDA-MB-468 [8]): 2.64 µM
- GI50 (DU-145 [9]): 1.75 µM
- TGI (DU-145 [9]): 3.18 µM
- CC50 (OVCAR-8): > 100 µM
- CC50 (TK-10 [10]): 6.02 µM
- GI50 (SW-620 [11]): 0.54 µM
- TGI (SW-620 [11]): 2.07 µM
- CC50 (SK-MEL-2): 8.13 µM
- GI50 (SN12C [12]): 2.69 µM
- TGI (SN12C [12]): 10.3 µM
- CC50 (BT-549): 4.65 µM
- GI50 (SF-268 [13]): 2.92 µM
- TGI (SF-268 [13]): 10.1 µM
- CC50 (HCC-2998): 9.82 µM
- CC50 (HCT-116): 4.97 µM
- CC50 (OVCAR-4): 8.06 µM
- CC50 (SF-268 [14]): 42.4 µM
- CC50 (SK-OV-3): 49.1 µM
- GI50 (HL-60(TB)): 0.44 µM
- TGI (HL-60(TB)): 2.13 µM
- CC50 (HL-60(TB)): > 100 µM
- CC50 (SK-MEL-28): 6.22 µM
- GI50 (NCI/ADR-RES): 26.7 µM
- TGI (NCI/ADR-RES): >100 µM
- CC50 (RXF 393): 6.21 µM
- CC50 (786-0): 6.04 µM
